From patent publication US11161837B2, “Benzofuran derivatives for the treatment of hepatitis C” (BRISTOL-MYERS SQUIBB COMPANY, priority 2016, dated 2021) come the findings set out here.

The subject of the experiment is genotype 1b (Con-1) HCV replicon in Huh-7 cells. Nature of the experiment: HCV replicon luciferase assay. Format: cell-based. The conditions noted are these: 1b replicon, Huh-7, Renilla luciferase, 3 days incubation. The procedure: The cell lines used to evaluate compounds consist of a human hepatocyte derived cell line (Huh-7) that constitutively expresses a genotype 1b (Con-1) HCV replicon or a genotype 1b (Con-1) HCV replicon with an asparagine replacing the cysteine at amino acid 316, or a genotype 2a (JFH-1) replicon, containing a Renilla luciferase reporter gene. These cells were maintained in Dulbecco's modified Eagle medium (DMEM) containing 10% FBS, 100 U/mL penicillin/streptomycin and 1.0 mg/mL G418.
HCV Replicon Luciferase Assay.
To evaluate compound efficacy, titrated compounds were transferred to sterile 384-well tissue culture treated plates, and the plates were seeded with HCV replicon cells (50 μL at a density of 2.4×10^3 cells/well) in DMEM containing 4% FBS (final DMSO concentration at 0.5%). After 3 days incubation at 37° C., cells were analyzed for Renilla Luciferase activity using the EnduRen substrate (Promega cat # E6485) according to the manufacturer's directions. Briefly, the EnduRen substrate was diluted in DMEM and then added to the plates to a final concentration of 7.5 μM. The plates were incubated for at least 1 h at 37° C. then read on a Viewlux Imager (PerkinElmer) using a luminescence program. The 50% effective concentration (EC50) was calculated using the four-parameter logistic formula noted above.

Compound `CCOc1cc2oc(-c3ccc(F)cc3)c(C(=O)NC)c2cc1-c1cccc(C(=O)NC2(c3ncccn3)CC(OC(F)F)C2)c1` (single isomer, unassigned) [Example 67a, 5-(3-((3-(Difluoromethoxy)-1-(pyrimidin-2-yl)cyclobutyl)carbamoyl)phenyl)-6-ethoxy-2-(4-fluorophenyl)-N-methylbenzofuran-3-carboxamide] returned an EC50 of 30 nM.

Regarding `CCOc1cc2oc(-c3ccc(F)cc3)c(C(=O)NC)c2cc1-c1cccc(C(=O)NC2(c3ncon3)CC(OC(F)F)C2)c1` (centres unmarked) [Example 70, 5-(3-((3-(Difluoromethoxy)-1-(1,2,4-oxadiazol-3-yl)cyclobutyl)carbamoyl)phenyl)-6-ethoxy-2-(4-fluorophenyl)-N-methylbenzofuran-3-carboxamide], where the note is “Hepatitis C virus, Huh-7, 72 h”, the midpoint of the response, the EC50, lay at 6.47 nM.

As to `CCCc1cc2oc(-c3ccc(F)cc3)c(C(=O)NC)c2cc1-c1ccc(F)c(C(=O)NC2(c3ncccn3)CC(OC(F)F)C2)c1` (centres unmarked) [Example 32, 5-(3-((3-(Difluoromethoxy)-1-(pyrimidin-2-yl)cyclobutyl)carbamoyl)-4-fluorophenyl)-2-(4-fluorophenyl)-N-methyl-6-propylbenzofuran-3-carboxamide], for the setting “Hepatitis C virus, Huh-7, 72 h”, the response was half-maximal at 9.02 nM (EC50). The EC50 values of the last two compounds are within 1.5-fold of each other.

As for `CNC(=O)c1c(-c2ccc(F)cc2)oc2cc(CCC(F)(F)F)c(-c3cccc(C(=O)NC4(c5ncccn5)CC(OC(F)F)C4)c3)cc12` (single isomer, unassigned) [Example 29b], the EC50 was 30 nM.

In turn, `CCN(c1cc2oc(-c3ccc(F)cc3)c(C(=O)NC)c2c(F)c1-c1cccc(C(=O)NC2(c3ncccn3)CC(OC(F)F)C2)c1)S(C)(=O)=O` (centres unmarked) [Example 21, 5-(3-((3-(Difluoromethoxy)-1-(pyrimidin-2-yl)cyclobutyl)carbamoyl)phenyl)-6-(N-ethylmethylsulfonamido)-4-fluoro-2-(4-fluorophenyl)-N-methylbenzofuran-3-carboxamide] came in with an EC50 (Hepatitis C virus, Huh-7, 72 h) of 2.23 nM.

For `CCCc1cc2oc(-c3ccc(F)cc3)c(C(=O)NC)c2cc1-c1cc(C(=O)NC2(c3ncccn3)CC(OC(F)(F)F)C2)c(OC)cc1C` (single isomer, unassigned) [Example 50a, 2-(4-Fluorophenyl)-5-(4-methoxy-2-methyl-5-((1-(pyrimidin-2-yl)-3-(trifluoromethoxy)cyclobutyl)carbamoyl)phenyl)-N-methyl-6-propylbenzofuran-3-carboxamide], the midpoint of the response (Hepatitis C virus, Huh-7, 72 h), the EC50, lay at 120 nM.

Regarding `CNC(=O)c1c(-c2ccc(F)cc2)oc2cc(CCC(F)(F)F)c(-c3cccc(C(=O)NC4(C)CC(OC(F)F)C4)c3)cc12` (single isomer, unassigned) [Example 59a, 5-(3-((3-(Difluoromethoxy)-1-methylcyclobutyl)carbamoyl)phenyl)-2-(4-fluorophenyl)-N-methyl-6-(3,3,3-trifluoropropyl)benzofuran-3-carboxamide], the EC50 (Hepatitis C virus, Huh-7, 72 h) is 30 nM.

On to `CNC(=O)c1c(-c2ccc(F)cc2)oc2cc(CCC(F)(F)F)c(-c3cc(C(=O)NC4(C)CC(OC(F)F)C4)c(OC)cc3C)cc12` (single isomer, unassigned) [Example 53a, 5-(5-((3-(Difluoromethoxy)-1-methylcyclobutyl)carbamoyl)-4-methoxy-2-methylphenyl)-2-(4-fluorophenyl)-N-methyl-6-(3,3,3-trifluoropropyl)benzofuran-3-carboxamide], for which the response (Hepatitis C virus, Huh-7, 72 h) was half-maximal at 60 nM (EC50).

For `CCCc1cc2oc(-c3ccc(F)cc3)c(C(=O)NC)c2cc1-c1cc(C(=O)NC2(c3ncccn3)CC(OC(F)F)C2)c(OC)cc1C` (centres unmarked) [Example 39, 5-(5-((3-(Difluoromethoxy)-1-(pyrimidin-2-yl)cyclobutyl)carbamoyl)-4-methoxy-2-methylphenyl)-2-(4-fluorophenyl)-N-methyl-6-propylbenzofuran-3-carboxamide], a half-maximal response (Hepatitis C virus, Huh-7, 72 h) (EC50) required 20 nM.

Regarding `CNC(=O)c1c(-c2ccc(F)cc2)oc2cc(CCC(F)(F)F)c(-c3cc(C(=O)NC4(c5ncccn5)CC(OC(F)(F)F)C4)c(OC)cc3C)cc12` (single isomer, unassigned) [Example 46a, 2-(4-Fluorophenyl)-5-(4-methoxy-2-methyl-5-((1-(pyrimidin-2-yl)-3-(trifluoromethoxy)cyclobutyl)carbamoyl)phenyl)-N-methyl-6-(3,3,3-trifluoropropyl)benzofuran-3-carboxamide], the response (Hepatitis C virus, Huh-7, 72 h) was half-maximal at 40 nM (EC50).

`CNC(=O)c1c(-c2ccc(F)cc2)oc2cc(CCC(F)(F)F)c(-c3ccc(F)c(C(=O)NC4(c5ncccn5)CC(OC(F)(F)F)C4)c3)cc12` (single isomer, unassigned) [Example 49a, 5-(4-Fluoro-3-((1-(pyrimidin-2-yl)-3-(trifluoromethoxy)cyclobutyl)carbamoyl)phenyl)-2-(4-fluorophenyl)-N-methyl-6-(3,3,3-trifluoropropyl)benzofuran-3-carboxamide] showed an EC50 (Hepatitis C virus, Huh-7, 72 h) of 20 nM.

Compound `CCCc1cc2oc(-c3ccc(F)cc3)c(C(=O)NC)c2cc1-c1ccc(F)c(C(=O)NC2(C)CC(OC(F)F)C2)c1` (single isomer, unassigned) [Example 61b, 5-(3-((3-(Difluoromethoxy)-1-methylcyclobutyl)carbamoyl)-4-fluorophenyl)-2-(4-fluorophenyl)-N-methyl-6-propylbenzofuran-3-carboxamide] came in with an EC50 of 20 nM.

Regarding `CNC(=O)c1c(-c2ccc(F)cc2)oc2cc(CCC(F)(F)F)c(-c3cc(C(=O)NC4(c5ncccn5)CC(OC(F)F)C4)c(OC)cc3C)cc12` (centres unmarked) [Example 41, 5-(5-((3-(Difluoromethoxy)-1-(pyrimidin-2-yl)cyclobutyl)carbamoyl)-4-methoxy-2-methylphenyl)-2-(4-fluorophenyl)-N-methyl-6-(3,3,3-trifluoropropyl)benzofuran-3-carboxamide], the response (Hepatitis C virus, Huh-7, 72 h) was half-maximal at 20 nM (EC50).

On to `CCCc1cc2oc(-c3ccc(F)cc3)c(C(=O)NC)c2cc1-c1ccc(F)c(C(=O)NC2(c3ncccn3)CC(OC(F)(F)F)C2)c1` (single isomer, unassigned) [Example 48a, 5-(4-Fluoro-3-((1-(pyrimidin-2-yl)-3-(trifluoromethoxy)cyclobutyl)carbamoyl)phenyl)-2-(4-fluorophenyl)-N-methyl-6-propylbenzofuran-3-carboxamide], for which, for the setting “Hepatitis C virus, Huh-7, 72 h”, the EC50 was 20 nM.

For the compound `CNC(=O)c1c(-c2ccc(F)cc2)oc2cc(CCC(F)(F)F)c(-c3ccc(F)c(C(=O)NC4(C)CC(OC(F)F)C4)c3)cc12` (single isomer, unassigned) [Example 63a, 5-(3-((3-(Difluoromethoxy)-1-methylcyclobutyl)carbamoyl)-4-fluorophenyl)-2-(4-fluorophenyl)-N-methyl-6-(3,3,3-trifluoropropyl)benzofuran-3-carboxamide], the EC50 (Hepatitis C virus, Huh-7, 72 h) came out at 10 nM.

In the case of `CCCc1cc2oc(-c3ccc(F)cc3)c(C(=O)NC)c2cc1-c1cccc(C(=O)NC2(C)CC(OC(F)F)C2)c1` (single isomer, unassigned) [Example 55b, 5-(3-((3-(Difluoromethoxy)-1-methylcyclobutyl)carbamoyl)phenyl)-2-(4-fluorophenyl)-N-methyl-6-propylbenzofuran-3-carboxamide], the EC50 stood at 30 nM.

`CCCc1cc2oc(-c3ccc(F)cc3)c(C(=O)NC)c2cc1-c1ccc(OC)c(C(=O)NC2(c3ncccn3)CC(OC(F)F)C2)c1` (centres unmarked) [Example 37] showed an EC50 (Hepatitis C virus, Huh-7, 72 h) of 6.08 nM.

One may read the EC50 as the concentration giving half of the maximal effect. A lower EC50 goes with an effect from little substance.
